Measured values taken from US9371290B2, “Pyridazinone compounds” (BIOTIE THERAPIES CORPORATION, priority 2011, dated 2016).

Experiments:
[1] = biological target: T1, Recombinant human VAP-1 SSAO (Homo sapiens, UniProt Q16853); assay: In vitro inhibition of VAP-1 SSAO activity (coupled colorimetric method, benzylamine substrate); type: biochemical; conditions: CHO cell lysate, 1 mM benzylamine, read-out: VAP-1 SSAO Inhibitory activity IC50
T1 construct: made in house; host or cells: Chinese Hamster Ovary (CHO) cells; clarified NP40 cell lysate used directly
T1 sequence (Q16853 1-763): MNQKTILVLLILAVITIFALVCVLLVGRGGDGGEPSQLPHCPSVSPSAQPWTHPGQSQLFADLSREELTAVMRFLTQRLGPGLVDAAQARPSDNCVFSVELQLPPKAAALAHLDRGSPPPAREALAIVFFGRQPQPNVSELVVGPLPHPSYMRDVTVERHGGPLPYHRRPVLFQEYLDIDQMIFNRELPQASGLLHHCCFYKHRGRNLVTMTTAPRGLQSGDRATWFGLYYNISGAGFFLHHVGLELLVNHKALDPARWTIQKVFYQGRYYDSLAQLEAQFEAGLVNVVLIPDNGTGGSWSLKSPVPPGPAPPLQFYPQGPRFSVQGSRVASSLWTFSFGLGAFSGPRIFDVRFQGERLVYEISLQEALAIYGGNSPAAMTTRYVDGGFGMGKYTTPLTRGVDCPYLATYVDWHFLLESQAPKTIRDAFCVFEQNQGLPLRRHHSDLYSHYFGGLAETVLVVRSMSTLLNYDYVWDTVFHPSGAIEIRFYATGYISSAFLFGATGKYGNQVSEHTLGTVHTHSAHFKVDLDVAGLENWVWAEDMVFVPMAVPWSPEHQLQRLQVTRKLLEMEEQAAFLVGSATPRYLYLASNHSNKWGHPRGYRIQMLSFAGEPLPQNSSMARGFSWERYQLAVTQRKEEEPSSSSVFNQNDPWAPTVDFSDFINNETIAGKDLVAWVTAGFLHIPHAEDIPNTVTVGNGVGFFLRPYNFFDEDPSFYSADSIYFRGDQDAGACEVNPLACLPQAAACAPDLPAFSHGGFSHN
Description: VAP-1 SSAO activity was measured using the coupled colorimetric method essentially as described for monoamine oxidase and related enzymes (Holt, A., et al., Anal. Biochem. 244:384-392 (1997)). Recombinant human VAP-1 SSAO expressed in Chinese Hamster Ovary (CHO) cells was used as a source of VAP-1 SSAO for activity measurements. Native CHO cells have negligible SSAO activity. These cells and their culture have previously been described (Smith, D. J., et al., J. Exp. Med. 188:17-27 (1998)). A cell lysate was prepared by suspending approximately 3.6×10^8 cells in 25 ml lysis buffer (150 mM NaCl, 10 mM Tris-Base pH 7.2, 1.5 mM MgCl2, 1% NP40) and incubating at 4° C. overnight on a rotating table. The lysate was clarified by centrifugation at 18 000 g for 5 min at room temperature and the supernatant used directly in the assay. The VAP-1 SSAO assay was performed in 96 well microtitre plates as follows. To each well was added a predetermined amount of inhibitor if required. The amount of inhibitor varied in each assay but was generally at a final concentration of between 1 nM and 50 μM. Controls lacked inhibitor. The inhibitor was in a total volume of 20 μl in water. The following reagents were then added. 0.2 M potassium phosphate buffer pH 7.6 to a total reaction volume of 200 μl, 50 μl of freshly made chromogenic solution containing 1 mM vanillic acid, 500 μM 4-aminoantipyrine and 8 U/ml horseradish peroxidase and an amount of CHO cell lysate containing VAP-1 SSAO that caused a change of 0.6 A490 per h. This was within the linear response range of the assay. The plates were incubated for 30 min at 37° C. and the background absorbance measured at 490 nm using a Wallac Victor II multilabel counter. To initiate the enzyme reaction 20 μl 10 mM benzylamine (final concentration=1 mM) was added and the plate incubated for 1 h at 37° C. The increase in absorbance, reflecting VAP-1 SSAO activity, was measured at 490 nm. Inhibition was presented as percent inhibition compared to control after correcting for background absorbance and IC50 values calculated using GraphPad Prism.

[2] = system: Total MAO; assay: Total rat MAO activity (rat liver mitochondrial preparation, tyramine substrate); type: biochemical
Description: Rat MAO was prepared from rat liver by rinsing the 1 g liver sample several times in 14 ml KCl-EDTA-solution to remove all blood. Then 1 g liver sample was homogenized in 4 ml ice-cold potassium phosphate buffer (0.1 M, pH 7.4) with an Ultra-Turrax homogenizer (setting 11 000 rpm, 4×10 s). After centrifugation at 500 g for 10 min at 4° C. the supernatant was carefully withdrawn and was centrifuged at 12 300 g for 15 min at 4° C. The supernatant was discharged and sedimented mitochondria were resuspended in 4 ml fresh phosphate buffer and centrifuged as previously. The mitochondria were suspended in 4 ml phosphate buffer and homogenized with an Ultra-Turrax homogenizer (setting 11 000 rpm, 2×10 s). Mitochondrial preparate was aliquoted and stored at −70° C. Total MAO activity was measured in a similar way as for VAP-1 SSAO except that SSAO enzyme was replaced by MAO enzyme. To each well was added a predetermined amount of inhibitor if required. The amount of inhibitor varied in each assay but was generally at a final concentration of between 10 nM and 800 μM. Controls lacked inhibitor. The inhibitor was in a total volume of 20 μl in water. The following reagents were then added. 0.2 M potassium phosphate buffer pH 7.6 for a total reaction volume of 200 μl, 50 μl of freshly made chromogenic solution (as above) and 50 μl of MAO preparation (or needed amount of MAO). The plates were incubated for 30 min at 37° C. and the background absorbance measured at 490 nm using a Wallac Victor II multilabel counter. To initiate the enzyme reaction 20 μl of 5 mM tyramine (final concentration 0.5 mM) was added and the plate incubated for 1 h at 37° C. The increase in absorbance, reflecting MAO activity, was measured at 490 nm. Inhibition was presented as percent inhibition compared to control after correcting for background absorbance and IC50 values calculated using GraphPad Prism. Clorgyline and pargyline (inhibitors of MAO-A and -B respectively) at 0.5 μM were added to some wells as positive controls for MAO inhibition.

Structure (SMILES) | melting point | IC50 [1] | Total MAO Inhibitory activity (%) ([2]; at 100 μM) | Total MAO Inhibitory activity (%) ([2]; at 250 μM) | Total MAO Inhibitory activity (%) ([2]; at 50 μM)
CN(C)CCNc1cc(=O)n(-c2ccccc2)nc1-c1nc[nH]n1 [Compound 13] | 211 to 214 °C | 15000 nM | – | – | –
COc1ccc(Oc2cc(=O)n(-c3ccccc3)nc2-c2nc[nH]n2)cc1 [Compound 14] | 253 to 257 °C | 370 nM | 0% | – | –
O=c1cc(Sc2ccccc2)c(-c2nc[nH]n2)nn1-c1ccccc1 [Compound 16, 2-phenyl-5-phenylsulfanyl-6-(1H-1,2,4-triazol-3-yl)-3(2H)-pyridazinone] | 245 to 250 °C | 640 nM | 24% | – | –
Cn1cc(-c2nn(-c3ccccc3)c(=O)cc2Oc2ccccc2)cn1 [Compound 17, 6-(1-methyl-1H-pyrazol-4-yl)-5-phenoxy-2-phenylpyridazin-3(2H)-one] | 195 to 197 °C | 236000 nM | 22% | – | –
O=c1cc(Oc2ccccc2)c(-c2ccc(F)cc2)nn1-c1ccccc1 [Compound 22] | 146 to 148 °C | ~60000 nM | 0% | – | –
O=c1cc(Oc2ccccc2)c(-c2nc[nH]n2)nn1-c1ccc(Cl)cc1 [Compound 25] | 246 to 247 °C | 350 nM | 0% | – | –
COc1cccc(-n2nc(-c3nc[nH]n3)c(Oc3ccccc3)cc2=O)c1 [Compound 27] | 253 to 254 °C | 2000 nM | 3% | – | –
CNc1cc(=O)n(-c2ccccc2)nc1-c1nc[nH]n1 [Compound 28] | 245 to 247 °C | 3600 nM | 10% | – | –
CC(C)Nc1cc(=O)n(-c2ccccc2)nc1-c1nc[nH]n1 [Compound 29, 5-isopropylamino-2-phenyl-6-(1H-1,2,4-triazol-3-yl)-3(2H)-pyridazinone] | 203 to 205 °C | 270 nM | 9% | – | –
O=c1cc(Oc2ccccc2)c(-c2nc[nH]n2)cn1-c1ccccc1 [Compound 34, 4-phenoxy-5-(1H-1,2,4-triazol-3-yl)-1-phenylpyridin-2(1H)-one] | 275 to 276 °C | 1600 nM | 24% | – | –
CCOc1cc(=O)n(-c2ccccc2)nc1-c1nc[nH]n1 [Compound 36] | 195 to 197 °C | 16000 nM | 3% | – | –
O=c1cc(NCCN2CCOCC2)c(-c2nc[nH]n2)nn1-c1ccccc1 [Compound 39] | 251 to 258 °C | 2000 nM | – | – | –
O=c1cc(NCc2ccccc2)c(-c2nc[nH]n2)nn1-c1ccccc1 [Compound 42, 5-benzylamino-2-phenyl-6-(1H-1,2,4-triazol-3-yl)-3(2H)-pyridazinone] | 192 to 193 °C | 720 nM | 2% | – | –
O=c1cc(NC2CCCCC2)c(-c2nc[nH]n2)nn1-c1ccccc1 [Compound 43, 5-cyclohexylamino-2-phenyl-6-(1H-1,2,4-triazol-3-yl)-3(2H)-pyridazinone] | – | 78 nM | 5% | – | –
O=c1cc(Oc2ccccc2)c(-c2nc[nH]n2)nn1-c1cccc(F)c1 [Compound 46] | 262 to 264 °C | 340 nM | 9% | – | –
O=c1cc(Nc2cccnc2)c(-c2nc[nH]n2)nn1-c1ccccc1 [Compound 52] | 172 to 174 °C | 3500 nM | 9% | – | –
COc1ccc(Nc2cc(=O)n(-c3ccc(Cl)cc3)nc2-c2nc[nH]n2)cc1 [Compound 57, 2-(4-chlorophenyl)-5-[(4-methoxyphenyl)amino]-6-(1H-1,2,4-triazol-3-yl)-3(2H)-pyridazinone] | 251 to 252 °C | 44 nM | 5% | – | –
O=c1cc(Nc2ccc3c(c2)OCO3)c(-c2nc[nH]n2)nn1-c1ccc(Cl)cc1 [Compound 59, 2-(4-chlorophenyl)-5-[(3,4-methylenedioxyphenyl)amino]-6-(1H-1,2,4-triazol-3-yl)-3(2H)-pyridazinone] | 270 to 273 °C | 80 nM | – | 14% | –
COc1cc(Nc2cc(=O)n(-c3ccc(Cl)cc3)nc2-c2nc[nH]n2)cc(OC)c1OC [Compound 61] | 238 to 241 °C | 300 nM | – | 17% | –
O=c1cc(Nc2ccc(N3CCCCC3)cc2)c(-c2nc[nH]n2)nn1-c1ccc(Cl)cc1 [Compound 62] | 240 to 242 °C | 280 nM | – | 21% | –
CN1CCN(c2ccc(Nc3cc(=O)n(-c4ccc(Cl)cc4)nc3-c3nc[nH]n3)cc2)CC1 [Compound 63] | 227 to 229 °C | 70 nM | – | – | –
CN(C)c1ccc(Nc2cc(=O)n(-c3ccc(Cl)cc3)nc2-c2nc[nH]n2)cc1 [Compound 65] | 276 to 279 °C | 63 nM | – | 8% | –
CN1CCC(Nc2cc(=O)n(-c3ccc(Cl)cc3)nc2-c2nc[nH]n2)CC1 [Compound 68] | 227 to 230 °C | 180 nM | – | – | –
C=CCNc1cc(=O)n(-c2ccc(Cl)cc2)nc1-c1nc[nH]n1 [Compound 70] | 212 to 215 °C | 140 nM | – | – | 18%
O=c1cc(NCC2CC2)c(-c2nc[nH]n2)nn1-c1ccc(Cl)cc1 [Compound 71] | 255 to 257 °C | 170 nM | – | – | 16%
NCCCNc1cc(=O)n(-c2ccc(Cl)cc2)nc1-c1nc[nH]n1 [Compound 78] | 285 to 290 °C | 800 nM | – | – | –
CN1CCN(c2ccc(Nc3cc(=O)n(-c4ccc(Cl)cc4)cc3-c3nc[nH]n3)cc2)CC1 [Compound 81] | 218 to 221 °C | 31 nM | – | – | –
